From publication PMC7101356, “Cross-site and cross-platform variability of automated patch clamp assessments of drug effects on human cardiac currents in recombinant cells” (Scientific Reports, 2020)

Experiments:
peak hNav1.5 = molecular target: T1, peak hNav1.5 (Homo sapiens, UniProt Q14524); experiment: Automated patch clamp, peak hNav1.5 current block; format: cell-based
T1 construct: expressed in transfected cells; host or cells: HEK293 or CHO, depending on site

late hNav1.5 = molecular target: T2, late hNav1.5 (Homo sapiens, UniProt Q14524); experiment: Automated patch clamp, late hNav1.5 current block (ATX-II activated); format: cell-based
T2 construct: expressed in transfected cells; host or cells: HEK293 or CHO, depending on site
T2 sequence (Q14524 whole entry): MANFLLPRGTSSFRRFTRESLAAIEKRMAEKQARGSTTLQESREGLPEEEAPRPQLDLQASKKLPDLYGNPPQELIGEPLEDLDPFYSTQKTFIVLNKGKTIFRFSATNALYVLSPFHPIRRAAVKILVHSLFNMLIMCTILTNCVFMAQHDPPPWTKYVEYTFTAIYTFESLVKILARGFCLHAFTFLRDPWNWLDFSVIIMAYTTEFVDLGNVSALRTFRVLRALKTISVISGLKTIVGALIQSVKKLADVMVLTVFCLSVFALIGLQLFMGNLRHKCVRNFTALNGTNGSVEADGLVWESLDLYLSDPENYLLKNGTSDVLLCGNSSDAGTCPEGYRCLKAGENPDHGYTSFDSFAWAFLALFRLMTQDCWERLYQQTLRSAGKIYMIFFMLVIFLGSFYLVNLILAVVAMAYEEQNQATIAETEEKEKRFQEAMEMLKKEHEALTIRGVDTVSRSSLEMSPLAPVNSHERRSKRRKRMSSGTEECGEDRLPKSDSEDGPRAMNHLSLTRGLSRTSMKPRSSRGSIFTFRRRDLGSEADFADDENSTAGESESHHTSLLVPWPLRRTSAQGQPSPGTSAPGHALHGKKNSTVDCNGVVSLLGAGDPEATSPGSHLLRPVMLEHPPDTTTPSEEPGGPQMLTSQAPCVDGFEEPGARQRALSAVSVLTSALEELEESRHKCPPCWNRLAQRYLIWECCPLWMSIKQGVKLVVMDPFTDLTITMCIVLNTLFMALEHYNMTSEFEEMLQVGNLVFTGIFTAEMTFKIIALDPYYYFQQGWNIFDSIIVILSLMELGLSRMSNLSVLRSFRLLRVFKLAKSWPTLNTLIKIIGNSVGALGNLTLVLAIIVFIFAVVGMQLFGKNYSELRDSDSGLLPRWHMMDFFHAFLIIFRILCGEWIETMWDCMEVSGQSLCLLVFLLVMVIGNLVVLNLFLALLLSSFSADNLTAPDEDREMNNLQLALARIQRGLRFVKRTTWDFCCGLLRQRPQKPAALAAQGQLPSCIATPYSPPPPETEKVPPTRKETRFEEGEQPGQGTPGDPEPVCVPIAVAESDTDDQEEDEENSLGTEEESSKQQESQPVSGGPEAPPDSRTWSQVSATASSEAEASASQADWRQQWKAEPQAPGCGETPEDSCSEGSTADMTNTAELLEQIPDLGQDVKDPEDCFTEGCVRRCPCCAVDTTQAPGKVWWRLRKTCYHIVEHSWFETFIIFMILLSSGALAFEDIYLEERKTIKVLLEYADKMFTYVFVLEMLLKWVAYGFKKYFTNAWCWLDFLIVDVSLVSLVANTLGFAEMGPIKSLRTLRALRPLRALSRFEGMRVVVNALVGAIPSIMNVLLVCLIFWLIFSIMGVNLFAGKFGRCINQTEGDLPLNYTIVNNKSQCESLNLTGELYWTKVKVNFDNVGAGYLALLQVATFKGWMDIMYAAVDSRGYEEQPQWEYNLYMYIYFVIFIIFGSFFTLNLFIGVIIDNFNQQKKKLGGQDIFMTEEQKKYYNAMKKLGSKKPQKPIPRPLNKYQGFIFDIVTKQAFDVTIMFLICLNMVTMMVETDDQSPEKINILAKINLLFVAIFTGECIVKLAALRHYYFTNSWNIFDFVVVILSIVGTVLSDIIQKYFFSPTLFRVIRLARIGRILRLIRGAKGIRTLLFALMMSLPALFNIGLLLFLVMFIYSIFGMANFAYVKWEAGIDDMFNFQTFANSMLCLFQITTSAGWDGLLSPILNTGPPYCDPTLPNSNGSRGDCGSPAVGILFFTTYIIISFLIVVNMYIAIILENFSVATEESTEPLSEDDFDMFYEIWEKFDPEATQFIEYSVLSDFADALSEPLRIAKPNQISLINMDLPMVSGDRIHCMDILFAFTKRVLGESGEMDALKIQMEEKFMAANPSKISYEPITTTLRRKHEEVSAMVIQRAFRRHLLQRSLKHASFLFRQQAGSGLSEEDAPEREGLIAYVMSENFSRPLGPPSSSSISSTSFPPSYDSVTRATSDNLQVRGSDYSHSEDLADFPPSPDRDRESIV

[1] = based on CiPA evaluations; cited from earlier work
hCav1.2 = hCav1.2 (Homo sapiens, UniProt Q13936); experiment: Automated patch clamp, hCav1.2 current block; details: for IC50: log IC50, half-maximal inhibitory concentration
Protocol: Peak current was measured during the step to 0 mV. Leak current was measured after applying a saturating concentration of a blocker such as cadmium (200 µM) at the end of each experiment to completely block hCav1.2 current.
Concentration-response relationships for each test article were independently investigated, i.e., each cell received only one test article, typically evaluating multiple concentrations in a cumulative fashion (lowest to highest concentrations). However, some platforms tested only one concentration per well. Each concentration response was based on a minimum of four concentrations, with a minimum of three wells used for each concentration. In cases of high variability, more cells per concentration were recorded. Prior to drug addition, cells received an addition of vehicle to measure non-test article-related effects such as addition artifacts. At the end of the experiment, a supramaximal concentration of a known inhibitory reference compound was applied to assess leak current and appropriate responsiveness of the test system. While it was recommended that a separate group of cells (n ≥ 3) be recorded for each experimental day to determine the baseline response to vehicle and to address day-to-day variability, this was not verified.
These criteria were applied to all APC platforms.
The steady state current at each concentration was used to determine the concentration-response relationships. Mean concentration-response data were fitted to a standard sigmoidal four-parameter logistic equation (GraphPad Prism 7; GraphPad Inc., La Jolla, CA) of the form: Y=Bottom+(Top−Bottom)/(1+10^∧(LogIC50−X)∗HillSlope) where Y is the current inhibition (in % of pre-drug control), X is the logarithm of drug concentration, and IC50 is the drug concentration producing half-maximal current inhibition. Curve fitting was performed using the following constraints: Top = 100%, Bottom = 0%, Hill Slope <2. No curve fitting was performed in cases with an obvious lack of a concentration-dependent current inhibition and/or small effect size (approximately ≤20%).

[2] = site_platform s06_p4, 1.00E-04 mol/L
[3] = site_platform s06_p4, 1.00E-06 mol/L
[4] = site_platform s07_p6, 1.00E-04 mol/L
[5] = site_platform s07_p6, 1.00E-06 mol/L
[6] = site_platform s13_p2, 1.00E-04 mol/L
[7] = site_platform s13_p2, 1.00E-06 mol/L
[8] = site_platform s14_p1, 1.00E-04 mol/L
[9] = site_platform s14_p1, 1.00E-06 mol/L

T1 sequence (Q14524 whole entry): as above

SMILES: Cc1cccc(C)c1OCC(C)N (stereo not shown) [mex, mexiletine]
- hNav1.5 IC50 variability (25/75 percentiles) (peak hNav1.5; across sites and platforms): 4 fold
- nH (Hill slope), peak hNav1.5 Na+ current inhibition (peak hNav1.5; site_platform s01_p1): 0.31
- Peak hNav1.5 Na+ current inhibition, Mean (peak hNav1.5; site_platform s01_p1, 1.00E-04 mol/L): 89.8%
- Peak hNav1.5 Na+ current inhibition, Mean (peak hNav1.5; site_platform s01_p1, 1.00E-06 mol/L): 57.9%
- nH (Hill slope), peak hNav1.5 Na+ current inhibition (peak hNav1.5; site_platform s02_p2): 0.99
- Peak hNav1.5 Na+ current inhibition, Mean (peak hNav1.5; site_platform s02_p2, 1.00E-04 mol/L): 54.9%
- Peak hNav1.5 Na+ current inhibition, Mean (peak hNav1.5; site_platform s02_p2, 1.00E-06 mol/L): -1.5%
- nH (Hill slope), peak hNav1.5 Na+ current inhibition (peak hNav1.5; site_platform s04_p3): 0.51
- Peak hNav1.5 Na+ current inhibition, Mean (peak hNav1.5; site_platform s04_p3, 1.00E-04 mol/L): 47.7%
- Peak hNav1.5 Na+ current inhibition, Mean (peak hNav1.5; site_platform s04_p3, 1.00E-06 mol/L): 8.8%
- nH (Hill slope), peak hNav1.5 Na+ current inhibition (peak hNav1.5; site_platform s06_p4): 1.28
- Peak hNav1.5 Na+ current inhibition, Mean (peak hNav1.5; [2]): 62.4%
- Peak hNav1.5 Na+ current inhibition, Mean (peak hNav1.5; [3]): 2.4%
- nH (Hill slope), peak hNav1.5 Na+ current inhibition (peak hNav1.5; site_platform s07_p6): 0.86
- Peak hNav1.5 Na+ current inhibition, Mean (peak hNav1.5; [4]): 79.8%
- Peak hNav1.5 Na+ current inhibition, Mean (peak hNav1.5; [5]): 7.1%
- nH, Hill slope, peak hNav1.5 inhibition (peak hNav1.5; site_platform s10_p3): 0.84
- Peak hNav1.5 Na+ current inhibition, Mean (peak hNav1.5; site_platform s10_p3, 1.00E-04 mol/L): 53.9%
- Peak hNav1.5 Na+ current inhibition, Mean (peak hNav1.5; site_platform s10_p3, 1.00E-06 mol/L): 6.6%
- nH, Hill slope, peak hNav1.5 inhibition (peak hNav1.5; site_platform s11_p1): 0.56
- Peak hNav1.5 Na+ current inhibition, Mean (peak hNav1.5; site_platform s11_p1, 1.00E-04 mol/L): 50.8%
- Peak hNav1.5 Na+ current inhibition, Mean (peak hNav1.5; site_platform s11_p1, 1.00E-06 mol/L): 10.7%
- nH, Hill slope, peak hNav1.5 inhibition (peak hNav1.5; site_platform s12_p2): 0.72
- Peak hNav1.5 Na+ current inhibition, Mean (peak hNav1.5; site_platform s12_p2, 1.00E-04 mol/L): 58.7%
- Peak hNav1.5 Na+ current inhibition, Mean (peak hNav1.5; site_platform s12_p2, 1.00E-06 mol/L): 4.9%
- nH, Hill slope, peak hNav1.5 inhibition (peak hNav1.5; site_platform s13_p2): 0.89
- Peak hNav1.5 Na+ current inhibition, Mean (peak hNav1.5; [6]): 50.5%
- Peak hNav1.5 Na+ current inhibition, Mean (peak hNav1.5; [7]): 2.3%
- nH, Hill slope, peak hNav1.5 inhibition (peak hNav1.5; site_platform s14_p1): 0.84
- Peak hNav1.5 Na+ current inhibition, Mean (peak hNav1.5; [8]): 65.7%
- Peak hNav1.5 Na+ current inhibition, Mean (peak hNav1.5; [9]): 6.3%
- nH, Hill slope, peak hNav1.5 inhibition (peak hNav1.5; site_platform s15_p1): 0.56
- Peak hNav1.5 Na+ current inhibition, Mean (peak hNav1.5; site_platform s15_p1, 1.00E-04 mol/L): 88.2%
- Peak hNav1.5 Na+ current inhibition, Mean (peak hNav1.5; site_platform s15_p1, 1.00E-06 mol/L): 30.6%
- nH, Hill slope, peak hNav1.5 inhibition (peak hNav1.5; site_platform s16_p3): 0.69
- Peak hNav1.5 Na+ current inhibition, Mean (peak hNav1.5; site_platform s16_p3, 1.00E-04 mol/L): 43.0%
- Peak hNav1.5 Na+ current inhibition, Mean (peak hNav1.5; site_platform s16_p3, 1.00E-06 mol/L): 5.6%
- nH, Hill slope, peak hNav1.5 inhibition (peak hNav1.5; site_platform s17_p1): 0.83
- Peak hNav1.5 Na+ current inhibition, Mean (peak hNav1.5; site_platform s17_p1, 1.00E-04 mol/L): 75.6%
- Peak hNav1.5 Na+ current inhibition, Mean (peak hNav1.5; site_platform s17_p1, 1.00E-06 mol/L): 10.3%
- nH, Hill slope, peak hNav1.5 inhibition (peak hNav1.5; site_platform s18_p1): 0.98
- Peak hNav1.5 Na+ current inhibition, Mean (peak hNav1.5; site_platform s18_p1, 1.00E-04 mol/L): 83.9%
- Peak hNav1.5 Na+ current inhibition, Mean (peak hNav1.5; site_platform s18_p1, 1.00E-06 mol/L): 6.1%
- nH, Hill slope, peak hNav1.5 inhibition (peak hNav1.5; site_platform s19_p3): 0.51
- Peak hNav1.5 Na+ current inhibition, Mean (peak hNav1.5; site_platform s19_p3, 1.00E-04 mol/L): 55.6%
- Peak hNav1.5 Na+ current inhibition, Mean (peak hNav1.5; site_platform s19_p3, 1.00E-06 mol/L): 12.4%
- nH, Hill slope, late hNav1.5 inhibition (late hNav1.5; site_platform s06_p4): 0.97
- Late hNav1.5 Na+ current inhibition, Mean (late hNav1.5; [2]): 96.2%
- Late hNav1.5 Na+ current inhibition, Mean (late hNav1.5; [3]): 18.9%
- nH, Hill slope, late hNav1.5 inhibition (late hNav1.5; site_platform s07_p6): 1.16
- Late hNav1.5 Na+ current inhibition, Mean (late hNav1.5; [4]): 89.6%
- Late hNav1.5 Na+ current inhibition, Mean (late hNav1.5; [5]): 5.5%
- nH, Hill slope, late hNav1.5 inhibition (late hNav1.5; site_platform s13_p2): 0.53
- Late hNav1.5 Na+ current inhibition, Mean (late hNav1.5; [6]): 76.8%
- Late hNav1.5 Na+ current inhibition, Mean (late hNav1.5; [7]): 26.4%
- nH, Hill slope, late hNav1.5 inhibition (late hNav1.5; site_platform s14_p1): 4.08
- Late hNav1.5 Na+ current inhibition, Mean (late hNav1.5; [8]): 98.8%
- Late hNav1.5 Na+ current inhibition, Mean (late hNav1.5; [9]): -15.4%
- TdP Risk Category [1]: Low
- IC50 (hCav1.2; site s01_p1): 372 µM
- IC50 (hCav1.2; site s06_p4): 178 µM
- IC50 (hCav1.2; site s14_p1): 234 µM
- IC50 (hCav1.2; site s16_p3): 251 µM
- IC50 (hCav1.2; site s18_p1): 162 µM
- nH, Hill slope (hCav1.2; site s01_p1): 0.60
- Peak hCav1.2 Ca2+ current inhibition, Mean (hCav1.2; site s01_p1, 1.00E-04 mol/L): 34.0%
- Peak hCav1.2 Ca2+ current inhibition, Mean (hCav1.2; site s01_p1, 1.00E-06 mol/L): 10.1%
- log IC50, half-maximal inhibitory concentration (hCav1.2; site s02_p2, corrected for rundown): no inh.
- Peak hCav1.2 Ca2+ current inhibition, Mean (hCav1.2; site s02_p2, corrected for rundown, 1.00E-04 mol/L): 1.8%
- Peak hCav1.2 Ca2+ current inhibition, Mean (hCav1.2; site s02_p2, corrected for rundown, 1.00E-06 mol/L): -11.1%
- nH, Hill slope (hCav1.2; site s06_p4): 0.87
- Peak hCav1.2 Ca2+ current inhibition, Mean (hCav1.2; site s06_p4, 1.00E-04 mol/L): 39.1%
- Peak hCav1.2 Ca2+ current inhibition, Mean (hCav1.2; site s06_p4, 1.00E-06 mol/L): 0.5%
